Converted amounts (≈) assume the structure as drawn. Read-outs that look alike come from different tables or passages of the source.
Key:
A2780S = assay: Inhibition of cancer cell growth as measured by cell number, A2780S; assay type: cell-based; conditions: Homo sapiens, read-out: IC50, inhibition of cancer cell growth
Protocol: (§1) After 48 hours exposure to test compounds, cells were fixed with trichloroacetic acid, and stained with Sulforhodamine B. After washing with trichloroacetic acid, bound dye was solubilized in 10 mM Tris base and optical density was determined using plate reader. Under conditions of the assay the optical density is proportional to the number of cells in the well. […] The test procedure is described in details by Philip Skehan et. al, J.Natl. Canc.

SW620 = assay: Inhibition of cancer cell growth as measured by cell number, SW620; assay type: cell-based; conditions: Homo sapiens, read-out: IC50, inhibition of cancer cell growth
Protocol: as §1

A2780DDP = assay: Inhibition of cancer cell growth as measured by cell number, A2780DDP; assay type: cell-based; conditions: Homo sapiens, read-out: IC50, inhibition of cancer cell growth
Protocol: as §1

A431 = assay: Inhibition of cancer cell growth as measured by cell number, A431; assay type: cell-based; conditions: Homo sapiens, read-out: IC50, inhibition of cancer cell growth
Protocol: as §1

MCF7 = assay: Inhibition of cancer cell growth as measured by cell number, MCF7; assay type: cell-based; conditions: Homo sapiens, read-out: IC50, inhibition of cancer cell growth
Protocol: as §1

MB435 = assay: Inhibition of cancer cell growth as measured by cell number, MB435; assay type: cell-based; conditions: Homo sapiens, read-out: IC50, inhibition of cancer cell growth
Protocol: as §1

LOX = assay: Inhibition of cancer cell growth as measured by cell number, LOX; assay type: cell-based; conditions: Homo sapiens, read-out: IC50, inhibition of cancer cell growth
Protocol: as §1

SKBR3 = assay: Inhibition of cancer cell growth as measured by cell number, SKBR3; assay type: cell-based; conditions: Homo sapiens, read-out: IC50, inhibition of cancer cell growth
Protocol: as §1

[1] = system: human epidermoid tumors (A431); assay type: in vivo, BALB/c nu/nu female mice; conditions: for % T/C / Relative Tumor Growth (RTG): days 1 through 10; for inhibition of tumor growth in vivo: in words
Protocol: BALB/c nu/nu female mice (Charles River, Wilmington, Mass.) were used in the in vivo standard pharmacological test procedures. […] A unit of 5×10^6 cells were injected SC into mice. When tumors attained a mass of between 100 and 150 mg, the mice were randomized into treatment groups (day zero). Mice were treated IP or PO once a day either on days 1, 5, and 9 or on days 1 through 10 post staging with doses of either 80, 40 or 20, or 10 mg/kg/dose of the compound to be evaluated in 0.2% Klucel. Control animals received no drug. […] […] The %T/C (Tumor/Control) is determined by dividing the relative tumor growth of the treated group by the relative tumor growth of the placebo group and multiplying by 100.

For `CC(C)(C)[Si](C)(C)OCC#CC(=O)Nc1ccc2ncnc(Nc3cccc(Br)c3)c2c1` [Example 15, 4-(tert-Butyl-dimethyl-silanyloxy)-but-2-ynoic acid [4-(3-bromo-phenylamino)-quinazolin-6-yl]-amide], the IC50 (A2780S; 48 h) was 0.02 µg/mL (≈ 0.0391 µM), the IC50 (SW620; SW-620, 48 h) was 0.02 µg/mL (≈ 0.0391 µM) and the IC50 (A2780DDP; 48 h) was 0.05 µg/mL (≈ 0.0978 µM). For the same compound, the IC50 (A431; A-431, 48 h) was 0.04 µg/mL (≈ 0.0782 µM), the IC50 (MCF7; MCF7, 48 h) was 0.45 µg/mL (≈ 0.88 µM) and the IC50 (MB435; 48 h) was 0.42 µg/mL (≈ 0.821 µM). The IC50 (LOX; 48 h) was 0.03 µg/mL (≈ 0.0587 µM) and the IC50 (SKBR3; SK-BR-3, 48 h) was 0.38 µg/mL (≈ 0.743 µM).
In the case of `CN(C)CC#CC(=O)Nc1ccc2ncnc(Nc3cccc(Br)c3)c2c1` [Example 21, 4-Dimethylamino-but-2-ynoic acid [4-(3-bromo-phenylamino)-quinazolin-6-yl]-amide], the “% T/C” value ([1]; 10 mg/kg/dose PO, Day 16) is reported as 56%, the “% T/C” value ([1]; 10 mg/kg/dose PO, Day 21) is reported as 42% and the “% T/C” value ([1]; 10 mg/kg/dose PO, Day 28) is reported as 42%. For the same compound, the “% T/C” value ([1]; 20 mg/kg/dose PO, Day 7) was 100%, the “% T/C” value ([1]; 20 mg/kg/dose PO, Day 16) was 82% and the “% T/C” value ([1]; 20 mg/kg/dose PO, Day 28) was 72%. For the same compound, the “% T/C” value ([1]; 40 mg/kg/dose PO, Day 7) was 79%, the “% T/C” value ([1]; 40 mg/kg/dose PO, Day 16) was 84% and the “inhibition of tumor growth in vivo” value [1] was “effective inhibitor of tumor growth in vivo”.
In the case of `CCN(CC)CC#CC(=O)Nc1ccc2ncnc(Nc3cccc(Br)c3)c2c1` [Example 25, 4-Diethylamino-but-2-ynoic acid[4-(3-bromo-phenylamino)-quinazolin-6-yl]-amide], the “% T/C” value ([1]; 40 PO, Day 7 (TABLE 5)) is reported as 71%, the “Relative Tumor Growth (RTG)” value ([1]; 40 PO, Day 7, control 2.76 (TABLE 5)) is reported as 1.96 and the “% T/C” value ([1]; 40 PO, Day 14 (TABLE 5)) is reported as 33%. The “Relative Tumor Growth (RTG)” value ([1]; 40 PO, Day 14, control 7.07 (TABLE 5)) was 2.33, the “% T/C” value ([1]; 40 PO, Day 21 (TABLE 5)) was 40% and the “Relative Tumor Growth (RTG)” value ([1]; 40 PO, Day 21, control 11.75 (TABLE 5)) was 4.68. The “% T/C” value ([1]; 40 PO, Day 28 (TABLE 5)) was 52%, the “Relative Tumor Growth (RTG)” value ([1]; 40 PO, Day 28, control 17.13 (TABLE 5)) was 8.84 and the “inhibition of tumor growth in vivo” value [1] was “effective inhibitor of tumor growth in vivo”. The “S/T (No. Survivors/No. Treated)” value ([1]; mouse, in vivo, po) was 4/5.
Compound `C=C(CN1CCOCC1)C(=O)Nc1ccc2ncnc(Nc3cccc(Br)c3)c2c1` [Example 63, N-[4-(3-Bromo-phenylamino)-quinazolin-6-yl]-2-morpholin-4-ylmethyl-acrylamide] has an IC50 (A2780S; 48 h) of 0.8 µg/mL (≈ 1.71 µM), an IC50 (SW620; SW-620, 48 h) of 5.5 µg/mL (≈ 11.7 µM) and an IC50 (A2780DDP; 48 h) of 4 µg/mL (≈ 8.54 µM). The IC50 (A431; A-431, 48 h) was 0.6 µg/mL (≈ 1.28 µM), the IC50 (MCF7; MCF7, 48 h) was 17 µg/mL (≈ 36.3 µM) and the IC50 (MB435; 48 h) was 4.5 µg/mL (≈ 9.61 µM). The IC50 (LOX; 48 h) was 3.9 µg/mL (≈ 8.33 µM) and the IC50 (SKBR3; SK-BR-3, 48 h) was 10 µg/mL (≈ 21.4 µM).
With `CN(C)CC=CC(=O)Nc1ccc2ncnc(Nc3cccc(Br)c3)c2c1` [Example 66, 4-Dimethylamino-but-2-enoic acid [4-(3-bromo-phenylamino)-quinazolin-6-yl]-amide] the IC50 (A2780S; 48 h) was 3.9 µg/mL (≈ 9.15 µM), the IC50 (SW620; SW-620, 48 h) was 5.1 µg/mL (≈ 12 µM) and the IC50 (A2780DDP; 48 h) was 5.1 µg/mL (≈ 12 µM). For the same compound, the IC50 (A431; A-431, 48 h) was 0.007 µg/mL (≈ 0.0164 µM), the IC50 (MCF7; MCF7, 48 h) was 7.6 µg/mL (≈ 17.8 µM) and the IC50 (MB435; 48 h) was 5.4 µg/mL (≈ 12.7 µM). It also gave an IC50 (LOX; 48 h) of 4.9 µg/mL (≈ 11.5 µM) and an IC50 (SKBR3; SK-BR-3, 48 h) of under 0.01 µg/mL.
`CCN(CC)CC=CC(=O)Nc1ccc2ncnc(Nc3cccc(Br)c3)c2c1` [Example 67, 4-Diethylamino-but-2-enoic acid [4-(3-bromo-phenylamino)-quinazolin-6-yl]-amide] was tested, and the IC50 (A2780S; 48 hours exposure) was 22 µg/mL (≈ 48.4 µM), the IC50 (SW620; SW-620, SW620, 48 hours exposure) was 52 µg/mL (≈ 114 µM) and the IC50 (A2780DDP; A2780DDP, 48 hours exposure) was 43 µg/mL (≈ 94.6 µM). For the same compound, the IC50 (A431; A-431, A431, 48 hours exposure) was 0.01 µg/mL (≈ 0.022 µM), the IC50 (MCF7; MCF7, 48 hours exposure) was 59 µg/mL (≈ 130 µM) and the IC50 (MB435; MB435, 48 hours exposure) was 45 µg/mL (≈ 99 µM). For the same compound, the IC50 (LOX; 48 hours exposure) was 46 µg/mL (≈ 101 µM) and the IC50 (SKBR3; SK-BR-3, SKBR3, 48 hours exposure) was under 0.01 µg/mL.
